Test results reported in US20170050957A1, “4-AMINO-6-(HETEROCYCLIC)PICOLINATES AND 6-AMINO-2-(HETEROCYCLIC)PYRIMIDINE-4-CARBOXYLATES AND THEIR USE AS HERBICIDES” (Dow AgroSciences LLC, priority 2013, published 2017).
Where two headings read alike, the source gives them in different places.

Tests used:
[1] = system: Key Grass and Sedge Weeds as well as Grass Crops; assay: Post-emergent Test II herbicidal activity (Table 16); assay type: in vivo; conditions: post-emergence, 336 h; for pest or weed control at 35 g/ha: 35 g ai/ha; for pest or weed control at 70 g/ha: 70 g ai/ha; for pest or weed control at 140 g/ha: 140 g ai/ha
Method: (§1) Post-emergent Test II: Seeds or nutlets of the desired test plant species were planted in Sun Gro Metro-Mix® 360 planting mixture, which typically has a pH of 6.0 to 6.8 and an organic matter content of about 30 percent, in plastic pots with a surface area of 64 square centimeters. When required to ensure good germination and healthy plants, a fungicide treatment and/or other chemical or physical treatment was applied. The plants were grown for 7-21 d in a greenhouse with an approximate 15 h photoperiod which was maintained at about 23-29° C. during the day and 22-28° C. during the night. Nutrients and water were added on a regular basis and supplemental lighting was provided with overhead metal halide 1000-Watt lamps as necessary. The plants were employed for testing when they reached the first or second true leaf stage.
(§2) A weighed amount, determined by the highest rate to be tested, of each test compound was placed in a 25 mL glass vial and was dissolved in 4 mL of a 97:3 v/v mixture of acetone and DMSO to obtain concentrated stock solutions. […] The concentrated stock solutions obtained were diluted with 20 mL of an aqueous mixture containing acetone, water, isopropyl alcohol, DMSO, Atplus 411F crop oil concentrate, and Triton® X-155 surfactant in a 48.5:39:10:1.5:1.0:0.02 v/v ratio to obtain spray solutions containing the highest application rates. Additional application rates were obtained by serial dilution of 12 mL of the high rate solution into a solution containing 2 mL of 97:3 v/v mixture of acetone and DMSO and 10 mL of an aqueous mixture containing acetone, water, isopropyl alcohol, DMSO, Atplus 411F crop oil concentrate, and Triton X-155 surfactant in a 48.5:39:10:1.5:1.0:0.02 v/v ratio to obtain 1/2×, 1/4×, 1/8× and 1/16× rates of the high rate. Compound requirements are based upon a 12 mL application volume at a rate of 187 liters per hectare (L/ha). Formulated compounds were applied to the plant material with an overhead Mandel track sprayer equipped with 8002E nozzles calibrated to deliver 187 L/ha over an application area of 0.503 square meters at a spray height of 18 inches (43 cm) above the average plant canopy height. Control plants were sprayed in the same manner with the solvent blank.
(§3) The treated plants and control plants were placed in a greenhouse as described above and watered by subirrigation to prevent wash-off of the test compounds. After 14 d, the condition of the test plants as compared with that of the untreated plants was determined visually and scored on a scale of 0 to 100 percent where 0 corresponds to no injury and 100 corresponds to complete kill.

[2] = system: Key Broadleaf Weed and Crop Species; assay: Post-emergent Test II herbicidal activity (Table 15); assay type: in vivo; conditions: post-emergence, 336 h, 14 d; for pest or weed control at 35 g/ha: 35 g ai/ha; for pest or weed control at 70 g/ha: 70 g ai/ha; for pest or weed control at 140 g/ha: 140 g ai/ha
Method: as §1, §2, §3

[3] = Cyperus esculentus, yellow nutsedge (Cyperus esculentus), 14 d, read-out: Visual Growth Reduction (%) 14 Days After Application, CYPES
[4] = Echinochloa crus-galli, barnyardgrass (Echinochloa crus-galli), 14 d, read-out: Visual Growth Reduction (%) 14 Days After Application, ECHCG
[5] = Oryza sativa, rice (Oryza sativa), 14 d, read-out: Visual Growth Reduction (%) 14 Days After Application, ORYSA
[6] = Setaria faberi, giant foxtail (Setaria faberi), 14 d, read-out: Visual Growth Reduction (%) 14 Days After Application, SETFA
[7] = Triticum aestivum, wheat, spring (Triticum aestivum), 14 d, read-out: Visual Growth Reduction (%) 14 Days After Application, TRZAS
[8] = Zea mays, maize, corn (Zea mays), 14 d, read-out: Visual Growth Reduction (%) 14 Days After Application, ZEAMX
[9] = Abutilon theophrasti, velvetleaf (Abutilon theophrasti), read-out: Visual Growth Reduction (%) 14 Days After Application, ABUTH
[10] = Amaranthus retroflexus, redroot pigweed (Amaranthus retroflexus), read-out: Visual Growth Reduction (%) 14 Days After Application, AMARE
[11] = Brassica napus, oilseed rape, canola (Brassica napus), read-out: Visual Growth Reduction (%) 14 Days After Application, BRSNN
[12] = Chenopodium album, lambsquarters (Chenopodium album), read-out: Visual Growth Reduction (%) 14 Days After Application, CHEAL
[13] = Euphorbia heterophylla, wild poinsettia (Euphorbia heterophylla), read-out: Visual Growth Reduction (%) 14 Days After Application, EPHHL
[14] = Helianthus annuus, sunflower (Helianthus annuus), read-out: Visual Growth Reduction (%) 14 Days After Application, HELAN

| melting point | SMILES | pest or weed control at 35 g/ha [1, 3] | pest or weed control at 70 g/ha [1, 3] | pest or weed control at 140 g/ha [1, 3] | pest or weed control at 35 g/ha [1, 4] | pest or weed control at 70 g/ha [1, 4] | pest or weed control at 140 g/ha [1, 4] | pest or weed control at 35 g/ha [1, 5] | pest or weed control at 70 g/ha [1, 5] | pest or weed control at 140 g/ha [1, 5] | pest or weed control at 35 g/ha [1, 6] | pest or weed control at 70 g/ha [1, 6] | pest or weed control at 140 g/ha [1, 6] | pest or weed control at 35 g/ha [1, 7] | pest or weed control at 70 g/ha [1, 7] | pest or weed control at 140 g/ha [1, 7] | pest or weed control at 35 g/ha [1, 8] | pest or weed control at 70 g/ha [1, 8] | pest or weed control at 140 g/ha [1, 8] | other results |
| --- | --- | --- | --- | --- | --- | --- | --- | --- | --- | --- | --- | --- | --- | --- | --- | --- | --- | --- | --- | --- |
| 168 to 170 °C | Nc1c(F)c(-c2ccc3ccoc3c2)nc(C(=O)O)c1Cl [Compound 2.08] | 0 to 29% | 0 to 29% | 0 to 29% | 85 to 94% | 85 to 94% | 95 to 100% | 0 to 29% | 30 to 44% | 30 to 44% | 45 to 59% | 60 to 74% | 85 to 94% | 0 to 29% | 0 to 29% | 0 to 29% | 45 to 59% | 60 to 74% | 60 to 74% |  |
| 129 to 133 °C | COC(=O)c1nc(-c2ccc3[nH]nnc3c2)cc(N)c1Cl [Compound 9.01] |  |  |  |  |  |  |  |  |  |  |  |  |  |  |  |  |  |  | pest or weed control at 140 g/ha ([1]; Cyperus esculentus, yellow nutsedge (Cyperus esculentus), 14 days after application, read-out: Visual Growth Reduction (%) 14 Days After Application CYPES): 95 to 100%; pest or weed control at 140 g/ha ([1]; Echinochloa crus-galli, barnyardgrass (Echinochloa crus-galli), 14 days after application, read-out: Visual Growth Reduction (%) 14 Days After Application ECHCG): 95 to 100%; pest or weed control at 140 g/ha ([1]; Oryza sativa, rice (Oryza sativa), 14 days after application, read-out: Visual Growth Reduction (%) 14 Days After Application ORYSA): 0 to 29%; pest or weed control at 140 g/ha ([1]; Setaria faberi, giant foxtail (Setaria faberi), 14 days after application, read-out: Visual Growth Reduction (%) 14 Days After Application SETFA): 0 to 29%; pest or weed control at 140 g/ha ([1]; Triticum aestivum, wheat, spring (Triticum aestivum), 14 days after application, read-out: Visual Growth Reduction (%) 14 Days After Application TRZAS): 0 to 29%; pest or weed control at 140 g/ha ([1]; Zea mays, maize, corn (Zea mays), 14 days after application, read-out: Visual Growth Reduction (%) 14 Days After Application ZEAMX): 0 to 29% |
| 186 to 188 °C | COC(=O)c1nc(-c2ccc(Cl)c3cc[nH]c23)cc(N)c1Cl [Compound 1.49] |  |  |  |  |  |  |  |  |  |  |  |  |  |  |  |  |  |  | pest or weed control at 35 g/ha [2, 9]: 85 to 94%; pest or weed control at 70 g/ha [2, 9]: 85 to 94%; pest or weed control at 140 g/ha [2, 9]: 85 to 94%; pest or weed control at 35 g/ha [2, 10]: 0 to 29%; pest or weed control at 70 g/ha [2, 10]: 30 to 44%; pest or weed control at 140 g/ha [2, 10]: 0 to 29%; pest or weed control at 35 g/ha [2, 11]: 0 to 29%; pest or weed control at 70 g/ha [2, 11]: 0 to 29%; pest or weed control at 140 g/ha [2, 11]: 0 to 29%; pest or weed control at 35 g/ha [2, 12]: 85 to 94%; pest or weed control at 70 g/ha [2, 12]: 85 to 94%; pest or weed control at 140 g/ha [2, 12]: 95 to 100%; pest or weed control at 35 g/ha [2, 13]: 0 to 29%; pest or weed control at 70 g/ha [2, 13]: 0 to 29%; pest or weed control at 140 g/ha [2, 13]: 0 to 29%; pest or weed control at 35 g/ha [2, 14]: 0 to 29%; pest or weed control at 70 g/ha [2, 14]: 0 to 29%; pest or weed control at 140 g/ha [2, 14]: 45 to 59% |

| SMILES | melting point | pest or weed control at 35 g/ha [1, 3] | pest or weed control at 70 g/ha [1, 3] | pest or weed control at 140 g/ha [1, 3] | pest or weed control at 35 g/ha [1, 4] | pest or weed control at 70 g/ha [1, 4] | pest or weed control at 140 g/ha [1, 4] | pest or weed control at 35 g/ha [1, 5] | pest or weed control at 70 g/ha [1, 5] | pest or weed control at 140 g/ha [1, 5] | pest or weed control at 35 g/ha [1, 6] | pest or weed control at 70 g/ha [1, 6] | pest or weed control at 140 g/ha [1, 6] | pest or weed control at 35 g/ha [1, 7] | pest or weed control at 70 g/ha [1, 7] | pest or weed control at 140 g/ha [1, 7] | pest or weed control at 35 g/ha [1, 8] | pest or weed control at 70 g/ha [1, 8] | pest or weed control at 140 g/ha [1, 8] | other results |
| --- | --- | --- | --- | --- | --- | --- | --- | --- | --- | --- | --- | --- | --- | --- | --- | --- | --- | --- | --- | --- |
| COC(=O)c1nc(-c2ccc3ccn([Si](C(C)C)(C(C)C)C(C)C)c3c2F)c(F)c(N)c1Cl [Compound 1.12, methyl 4-amino-3-chloro-5-fluoro-6-(7-fluoro-1-(triisopropylsilyl)-1H-indol-6-yl)picolinate] | 181 to 182 °C | 0 to 29% | 0 to 29% | 0 to 29% | 0 to 29% | 0 to 29% | 85 to 94% | 0 to 29% | 0 to 29% | 0 to 29% | 75 to 84% | 60 to 74% | 75 to 84% | 45 to 59% | 0 to 29% | 0 to 29% | 0 to 29% | 0 to 29% | 0 to 29% |  |
